According to patent publication US9226919B2, “Methods for dosing an orally active 1,2,4-oxadiazole” (PTC Therapeutics, Inc., priority 2006, dated 2016):

Tests used:
[1] = system: serum CK; experiment: Serum CK levels, Phase 2 DMD study; format: in vivo, human; settings: majority of subjects at 4-, 8-, 10-, 20-, 40-mg/kg dose levels (p=0.03, 0.002, 0.001)
Protocol: Serum CK activity is assessed using a commercially available NADH-linked kinetic assay (Diagnostic Chemicals Ltd., Oxford, Conn.). Serum CK levels are measured prior to treatment, on day 1 (prior to first dose), day 7, day 14, day 21, and day 27 during the treatment period, and on day 42 and day 56 after treatment. Serum CK is increased in Duchenne muscular dystrophy and therefore is a readily measurable diagnostic marker for the disease and may serve as a potential biomarker for the pharmacological activity of the drug (Mendell et al., 1989, New Eng. J. Med. 320(24):1592-1597).
Pre-treatment of primary muscle cells from 24 of the 26 boys in the first 2 cohorts were available for in vitro myotube culture. […] These changes were statistically significant (p=0.03, p=0.002, p=0.001 for low-, middle- and high doses, respectively). The return of mean values toward baseline upon cessation of treatment provided additional support for pharmacological activity.

[2] = system: dystrophin; experiment: In vitro myotube culture of patients' primary muscle cells, dystrophin expression; format: cell-based, human
Protocol: Studies are performed on muscle tissue and skin from patients to determine whether dystrophin production in primary muscle cultures from the patients corresponds with dystrophin production in vivo. […] Correlations of skin cell response with clinical activity may offer an easy-to-obtain predictive test in selecting future patients for therapy or for screening new agents for the treatment of DMD. Cells are cultured as follows. Biopsy material is stored during transport in human proliferation medium (or PBS), and on ice for longer time periods if necessary. If the tissue is not prepared within 24 hours, the material can be frozen in human proliferation medium containing 10% DMSO and stored in liquid nitrogen (or dry ice). At the time the tissue is to be prepared for setting up the myoblast culture, biopsy material is washed in PBS. PBS sufficient to keep the tissue moist is added into a culture dish. The biopsy material is minced thoroughly with razor blades, toward an almost homogeneous suspension. Approximately 2 ml of collegenase/dispase/CaCl2 solution per gram of tissue is added and mincing is continued for several minutes (e.g. for a muscle biopsy of 5×5×5 mm use 1 ml of enzyme solution). […] The myogenic cell content of the culture is determined by performing a desmin-staining. […]

[3] = Body weight, Phase 2 cystic fibrosis study; format: in vivo, human
Excerpt: 3-[5-(2-Fluoro-phenyl)-[1,2,4]oxadiazol-3-yl]-benzoic acid was provided in a formulation described herein.
Statistically significant results and positive trends for secondary endpoints were also observed. In particular, although the trials were not been powered to detect statistical significant changes in secondary endpoints, statistically significant improvements from study entry to the end of the higher-dose treatment cycle in the patients' mean FEV1, FVC and weight were observed.

For `O=C(O)c1cccc(-c2noc(-c3ccccc3F)n2)c1` [3-[5-(2-fluoro-phenyl)-[1,2,4]oxadiazol-3-yl]-benzoic acid], the “Serum CK, end-of-treatment versus pretreatment values” [1] was “decreases in CK”, the “Dystrophin expression in myotube cultures” value ([2]; cultured in the presence of the compound) was “dose-dependent increase in dystrophin expression” and the “In Vitro Expression Response (dystrophin)” value ([2]; myotube culture of pre-treatment primary muscle cells of individual DMD patients) was “Yes”. The “Weight, End of Higher Dose Treatment” value ([3]; end of higher-dose cycle (10, 10, 20 mg/kg TID), study entry 58.3 kg) was 59.0 kg and the “Weight, Change” value ([3]; study entry to end of higher dose treatment) was 0.7 kg.
